In test [1] the target is T1, human platelets (thromboxane receptor sites) (Homo sapiens, UniProt P21731).
T1 construct: Platelet-rich plasma is obtained from fresh, citrated human blood; endogenous in cells; host or cells: human platelets (platelet-rich plasma from fresh, citrated human blood)
T1 sequence (P21731 1-343): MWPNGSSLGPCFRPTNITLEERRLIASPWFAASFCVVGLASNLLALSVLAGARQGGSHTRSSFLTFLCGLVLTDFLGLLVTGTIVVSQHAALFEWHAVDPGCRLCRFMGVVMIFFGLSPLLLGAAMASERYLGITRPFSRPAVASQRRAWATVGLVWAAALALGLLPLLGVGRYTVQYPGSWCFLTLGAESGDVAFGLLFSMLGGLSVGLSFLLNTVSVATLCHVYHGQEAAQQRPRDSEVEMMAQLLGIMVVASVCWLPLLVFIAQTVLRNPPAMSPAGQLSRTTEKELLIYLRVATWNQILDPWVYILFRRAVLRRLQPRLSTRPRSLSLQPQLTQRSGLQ
As to the kind of experiment: Human platelet system: antagonism of aggregation by 11,9-(epoxymethano) PGH2. The test is classed as cell-based. Particulars: for Kb: against 11,9-epoxymethano analogue of PGH2, compound added 5 minutes previously, Gaddum-Schild Equation, read-out: AFFINITY CONSTANTS (KB), Human Platelets (converted). How it is done: Platelet-rich plasma is obtained from fresh, citrated human blood. Addition of the 11,9-epoxymethano analogue of PGH2 (1×10^-7 M to 5×10^-7 M) causes immediate aggregation recorded as an increase in light transmission (600 nm). In a second experiment the individual compounds are added 5 minutes previously to addition of the PGH2 analogue. The dose of the PGH2 analogue added is then increased to a level which gives a similar response to that obtained in the absence of antagonist. The affinity constant, KB, for the compound is calculated according to the Gaddum-Schild Equation (based on Law of Mass Action).
[B]=molar concentration of compound
(§1) Results typical of those obtained for the various compounds (all of which are of the formula shown at the beginning of Example 4 except where otherwise indicated) are shown in Table 3.

Test [2] deals with rabbit aorta (thromboxane receptor sites). In words: Rabbit aorta system: antagonism of contraction by 11,9-(epoxymethano) PGH2. It is filed as cell-based. Particulars: for Kb: Oryctolagus cuniculus, 0.5 h, Gaddum-Schild Equation, read-out: AFFINITY CONSTANTS, Rabbit Aorta (converted); for Kb / Rabbit Aorta, affinity constant not given: against 11,9-(epoxymethano) PGH2, compound added 30 minutes previously. Also on record: key to Rabbit Aorta, affinity constant not given: (2): Partial agonist.
From the text: It is believed that such inhibition is the result of the compounds being thromboxane antagonists and the activity of the compounds is for convenience hereinafter discussed in these terms. […] Structural features which tend to endow a compound with a more pure antagonist form of activity are (a) the absence of a halogen substituent, particularly at the para position, in the benzene ring of a phenoxyethyl O-substituted oxime; (b) the absence of a halogen substituent at the meta position of a benzyl O-substituted oxime; and (c) the presence of two benzene rings in the oxime substituent,these rings being located, for example, on a carbon atom joined directly to the oxygen atom of the oxime group. Some activity has also been alserved in compounds according to the present invention on guinea pig tracheal muscle.
Spiral strips of thoracic aorta are suspended in Kreb's-Henseleit solution and aerated with 95% O2 /5% CO2 at 37° C. Tension changes are recorded with a Grass FTO3 force transducer. Initially, cumulative dose response curves to 11,9-(epoxymethano) PGH2 (2×10^-9, 1×10^-8, 5×10^-8 and 2.5×10^-7 M) are obtained. In a second experiment the individual compounds are added 30 minutes previously to the addition of the series of agonist doses. Affinity constants are calculated as above.
as §1

The subject of test [3] is platelets, archidonic acid. As to the kind of experiment: Platelets: block of the aggregatory action of arachidonic acid. It is filed as cell-based, human. Conditions: converted to TXA2 by the platelet enzyme system.
Test [4] deals with α-adrenoceptors. In words: Rabbit aorta strip: block of the contractile action of noradrenaline. It is filed as cell-based.

We go through 15 compounds from patent publication US4430345A, “Prostaglandins” (National Research Development Corporation, priority 1979, dated 1984).

In the case of `O=C(O)CCC/C=C\C[C@H]1[C@H]2CC[C@H](C2)[C@@H]1C=NOCc1ccc(F)cc1` (relative stereo), the Kb was 1720 nM in test [1] and 435 nM in test [2].

`O=C(O)CCC/C=C\C[C@@H]1[C@@H](C=NOCc2ccc(Cl)cc2)[C@@H]2C=C[C@H]1C2` (relative stereo): the Kb in test [1] is 4760 nM; in test [2], 149 nM.

As for `O=C(O)CCCCCC[C@H]1[C@H]2CC[C@H](C2)[C@@H]1C=NOCc1ccc(F)cc1` (relative stereo), the Kb in test [1] is 12000 nM.

For the compound `O=C(O)CCC/C=C\C[C@@H]1[C@@H](C=NOCc2ccccc2)[C@@H]2C=C[C@H]1C2` (relative stereo), the Kb in test [1] is 5260 nM; in test [2], 667 nM.

Turning to `O=C(O)CCC/C=C\C[C@@H]1[C@@H](C=NOCc2ccc(F)cc2)[C@@H]2C=C[C@H]1C2` (relative stereo) [Example 1, 5-endo-(6'-Carboxyhex-2'-Z-enyl)-6-exo-(O-p-fluorobenzyloxyiminomethyl)-bicyclo[2,2,1]hept-2Z-ene], the “activity in the platelet test (in words)” value in test [1] (11,9-(epoxymethano) PGH2, human platelets in vitro) was “antagonists in the platelet test”. Also, in test [2] (11,9-(epoxymethano) PGH2, rabbit aorta strip), the “activity in the rabbit aorta strip test (in words)” value was “pure antagonists in the rabbit aorta strip test”. In test [3], the “block of aggregatory action of archidonic acid (in words)” value is recorded as “block the aggregatory action of archidonic acid”. The “block of contractile action of noradrenaline (in words)” value in test [4] is reported as “do not block the contractile action of noradrenaline”.

With `O=C(O)CCC/C=C\C[C@H]1[C@H]2CC[C@H](C2)[C@@H]1C=NOCc1cccc(C(F)(F)F)c1` (relative stereo), the “Rabbit Aorta, affinity constant not given” value in test [2] is “(2)”.

In the case of `O=C(O)CCC/C=C\C[C@@H]1[C@@H](C=NOCCOc2ccccc2)[C@@H]2C=C[C@H]1C2` (relative stereo), the figures for the Kb in test [1] and in test [2] were 20000 nM and 400 nM, respectively.

Take `O=C(O)CCC/C=C\C[C@@H]1[C@@H](C=NOC(c2ccccc2)c2ccccc2)[C@@H]2C=C[C@H]1C2` (relative stereo): the Kb is 19.6 nM in test [1] and 1690 nM in test [2].

As to `O=C(O)CCC/C=C\C[C@H]1[C@H]2CC[C@H](C2)[C@@H]1C=NOCc1ccc(Cl)cc1Cl` (relative stereo), the Kb was 3570 nM in test [1] and 238 nM in test [2].

Take `O=C(O)CCC/C=C\C[C@H]1[C@H]2CC[C@H](C2)[C@@H]1C=NOCc1cccc(Cl)c1` (relative stereo): the Kb in test [1] is 1690 nM. The “Rabbit Aorta, affinity constant not given” value in test [2] is “(2)”.

In the case of `O=C(O)CCC/C=C\C[C@@H]1[C@@H](C=NOCCOc2ccc(F)cc2)[C@@H]2C=C[C@H]1C2` (relative stereo), in test [1], the Kb was 25000 nM. Further, in test [2], the “Rabbit Aorta, affinity constant not given” value was “(2)”.

For the compound `CCCCCON=C[C@H]1[C@@H]2CC[C@@H](C2)[C@@H]1C/C=C\CCCC(=O)O` (relative stereo) [(CH2)4 CH3], the results for the Kb in test [1] and in test [2] were 5880 nM and 6670 nM, respectively.

In the case of `O=C(O)CCC/C=C\C[C@H]1[C@H]2CC[C@H](C2)[C@@H]1C=NOC(c1ccccc1)c1ccccc1` (relative stereo), the Kb was 20.8 nM in test [1] and 5260 nM in test [2].

Turning to `O=C(O)CCC/C=C\C[C@@H]1[C@@H](C=NOCc2ccc(F)cc2)[C@@H]2C=C[C@H]1C2` (relative stereo) [drawing 29], the Kb in test [1] is 2500 nM; in test [2], 278 nM.

For the compound `O=C(O)CCC/C=C\C[C@@H]1[C@@H](C=NOCCOc2ccc(Cl)cc2)[C@@H]2C=C[C@H]1C2` (relative stereo), the Kb in test [1] was 10000 nM. For the same compound, in test [2], the “Rabbit Aorta, affinity constant not given” value is reported as “(2)”.
